PMC7397056, “Design, Facile Synthesis and Characterization of Dichloro Substituted Chalcones and Dihydropyrazole Derivatives for Their Antifungal, Antitubercular and Antiproliferative Activities” (Molecules, 2020)
≈ marks a conversion by molar mass, not a printed value. Where two headings read alike, the source gives them in different places.

Columns and labels:
[1] = system: Aspergillus niger (ATCC-6275); assay: Antifungal activity, serial tube dilution method (MIC); conditions: for MIC: Aspergillus niger; for Antifungal activity MIC, A. niger: serial tube dilution, 37 °C, 18 h, average of three
[2] = system: Mycobacterium tuberculosis H37Rv; assay: Antitubercular activity, broth dilution assay (MIC); assay type: cell-based; conditions: for MIC: Middlebrook 7H9 broth, 37 °C, 21 days; for fold better activity than the standard pyrazinamide / fold less activity than pyrazinamide: ratio of MICs vs pyrazinamide (MIC 25.34 µM)
[3] = Cytotoxic activity on normal cells, MTT assay; assay type: cell-based
Procedure: (§1) The antiproliferative activity of the compounds was determined their IC50 values. Methotrexate (Mtx; positive control) was used as a reference standard for comparing the antiproliferative activity of the target compounds. The MTT (3-(4,5-dimethylthiazol-2-yl)-2,5-diphenyl tetrazolium bromide) assay was based on the reduction of the soluble MTT (0.5 mg mL^−1, 100 µL) into a blue-purple formazan product, mainly by the activity of mitochondrial reductase enzymes inside the living cells. The prostate cancer cell lines, DU-145 cells, were cultured in Dulbecco’s Modified Eagle Medium (DMEM) media at 37 °C and humidified at 5% CO2. Stock solutions of the test compounds (17–46) were prepared in 0.1% DMSO followed by dilution with sterile water to obtain the desired final concentrations. Briefly, the cells were placed on 96-well plates at 100 µL total volume with the density of 1 × 10^4 cells per well and were allowed to adhere for 24 h. Then the medium was replaced with fresh media containing different dilutions of the test compounds and incubated for additional 48 h at 37 °C in DMEM with 10% fetal bovine serum (FBS) medium. Subsequently, the medium was replaced with 90 μL of fresh DMEM without FBS. The above wells were treated with 10 μL of MTT reagent (5 mg/mL of stock solution in DMEM without FBS) and incubated at 37 °C for 3–4 h. The formed blue formazan crystals were dissolved in 200 μL of DMSO. The optical density was determined at 570 nm using a micro plate reader. The assay was performed in triplicate for three independent experiments. The same experimentation was also done to confirm that the DMSO (negative control) had no effect in the study. The results had good reproducibility between replicate wells with standard errors below 10%. The antiproliferative activity results measured as IC50 values in µg/mL were converted and expressed in µM. Additionally, the cytotoxic activity of the compounds was also measured employing the same protocol discussed above to assess their toxicity on normal human cell lines (L02).

[4] = system: Candida tropicalis (ATCC-1369); assay: Antifungal activity, serial tube dilution method (MIC); conditions: for MIC: Candida tropicalis, ATCC1369, 18 h, read-out: Antifungal activity MIC, C. tropicalis, serial tube dilution, 37 °C, 18 h, average of three
[5] = system: prostate cancer cell lines (DU-145); assay: Antiproliferative activity, MTT assay; assay type: cell-based; conditions: Homo sapiens, 48 h, mean ± SD (n = 3)
Procedure: as §1

[6] = ATCC6275, 18 h, read-out: Antifungal activity MIC, A. niger, serial tube dilution, 37 °C, 18 h, average of three
[7] = Mycobacterium tuberculosis, H37RV, 504 h
[8] = L02 cells (normal human cell line)
[9] = ATCC6275, read-out: Antifungal MIC, Aspergillus niger

Row | SMILES | MIC [1, 6] | MIC [2, 7] | IC50 at 48 h [3, 8] | MIC [4] | melting point | IC50 [5] | other results
1 | O=C(/C=C/c1ccc(Cl)cc1Cl)c1ccc(Cl)c(Cl)c1 [Compound 8, (E)-1-(3,4-dichlorophenyl)-3-(2,4-dichlorophenyl)prop-2-en-1-one] | 23.1 µM | 18.1 µM (≈ 6.25 µg/mL) | > 50 µg/mL | 46.2 µM (≈ 16 µg/mL) | 299 °C | 254 ± 2 µM | 
2 | Clc1ccc(C2=NN(c3ccccc3)C(c3ccc4c(c3)OCO4)C2)cc1Cl (centres unmarked) [Compound 25, 3-(3,4-dichlorophenyl)-1-phenyl-5-(benzo[d][1,3]dioxol-5-yl)-4,5-dihydro-1H-pyrazole] | 19.4 µM | 60.8 µM (≈ 25 µg/mL) | > 75 µg/mL | 19.4 µM (≈ 8 µg/mL) | 212 °C | 131 ± 2 µM | 
3 | Fc1ccc(C2CC(c3ccc(Cl)c(Cl)c3)=NN2c2ccccc2)c(F)c1 (centres unmarked) [Compound 22, 3-(3,4-dichlorophenyl)-1-phenyl-5-(2,4-difluorophenyl)-4,5-dihydro-1H-pyrazole] | 19.8 µM | 3.96 µM (≈ 1.6 µg/mL) | > 75 µg/mL | 19.8 µM (≈ 8 µg/mL) | 291 °C | 262 ± 2 µM | 
4 | Clc1ccc(C2=NN(c3ccccc3)C(c3cccnc3)C2)cc1Cl (centres unmarked) [Compound 27, 3-(3,4-dichlorophenyl)-1-phenyl-5-(pyridin-3-yl)-4,5-dihydro-1H-pyrazole] | 21.7 µM | 67.9 µM (≈ 25 µg/mL) | > 75 µg/mL | 21.7 µM (≈ 8 µg/mL) | 184 °C | 211 ± 2 µM | 
5 | Clc1ccc(C2=NN(c3ccccc3)C(c3ccccc3Cl)C2)cc1Cl (centres unmarked) [Compound 21, 3-(3,4-dichlorophenyl)-1-phenyl-5-(2-chlorophenyl)-4,5-dihydro-1H-pyrazole] | 19.9 µM | 15.6 to 32.4 µM (≈ 6.25 to 13 µg/mL) | > 75 µg/mL | 39.8 µM (≈ 16 µg/mL) | 133 °C | 134 ± 2 µM | MIC [1, 9]: 19.9 µg/mL; MIC [2]: 15.55 µM (≈ 6.25 µg/mL); fold better activity than the standard pyrazinamide [2]: 1.6 fold
6 | Fc1ccccc1C1CC(c2ccc(Cl)c(Cl)c2)=NN1c1ccccc1 (centres unmarked) [Compound 19, 3-(3,4-dichlorophenyl)-1-phenyl-5-(2-fluorophenyl)-4,5-dihydro-1H-pyrazole] | 20.8 µM |  | > 75 µg/mL | 41.5 µM (≈ 16 µg/mL) | 149 °C | 327 ± 2 µM | MIC [1, 9]: 20.8 µg/mL; MIC [2]: 32.44 µM (≈ 12.5 µg/mL); fold less activity than pyrazinamide [2]: 1.2 fold
7 | Clc1ccc(C2=NN(c3ccccc3)C(c3cccs3)C2)cc1Cl (centres unmarked) [Compound 31, 3-(3,4-dichlorophenyl)-1-phenyl-5-(thiophen-2-yl)-4,5-dihydro-1H-pyrazole] | 5.35 µM | 8.35 µM (≈ 3.12 µg/mL) |  | 5.35 µM (≈ 2 µg/mL) | 212 °C | 32 ± 1 µM | fold better activity in comparison to fluconazole, Aspergillus niger [1]: 4.9 fold; fold improvement in MIC of dihydropyrazole over chalcone 16, Aspergillus niger ([1]; 31 (5.35 µM) vs 16 (14.12 µM)): 2.6 fold; fold more antitubercular activity than the chalcones 14 and 16 ([2]; 29 vs 14, 31 vs 16): 2.6 fold; IC50 at 48 h ([3]; normal human cell line L02): > 75 µg/mL; fold better activity in comparison to fluconazole, Candida tropicalis [4]: 3.7 fold; fold improvement in MIC of dihydropyrazole over chalcone 16, Candida tropicalis ([4]; 31 (5.35 µM) vs 16 (14.12 µM)): 2.6 fold
8 | Cc1ccc(/C=C/C(=O)c2ccc(Cl)c(Cl)c2)cc1 [Compound 2] | 110 µM | 343 µM (≈ 100 µg/mL) | > 50 µg/mL | 110 µM (≈ 32 µg/mL) |  | 432 ± 2 µM | 
9 | O=C(/C=C/c1ccccc1F)c1ccc(Cl)c(Cl)c1 [Compound 4] | 27.1 µM | 84.7 µM (≈ 25 µg/mL) | > 50 µg/mL | 54.2 µM (≈ 16 µg/mL) |  | 393 ± 2 µM | 
10 | O=C(/C=C/c1ccccn1)c1ccc(Cl)c(Cl)c1 [Compound 11, (E)-1-(3,4-dichlorophenyl)-3-(pyridin-2-yl)prop-2-en-1-one] | 28.9 µM | 45.1 µM (≈ 12.5 µg/mL) | > 50 µg/mL | 28.9 µM (≈ 8.03 µg/mL) | 156 °C | 353 ± 2 µM | 
11 | O=C(/C=C/c1ccccc1Cl)c1ccc(Cl)c(Cl)c1 [Compound 6] | 25.7 µM | 20.1 µM (≈ 6.25 µg/mL) | > 50 µg/mL | 51.3 µM (≈ 16 µg/mL) |  | 141 ± 2 µM | 
12 | Cc1ccc(C2CC(c3ccc(Cl)c(Cl)c3)=NN2c2ccccc2)cc1 (centres unmarked) [Compound 17, 3-(3,4-dichlorophenyl)-1-phenyl-5-(p-tolyl)-4,5-dihydro-1H-pyrazole] | 42 µM | 262 µM (≈ 100 µg/mL) | > 75 µg/mL | 42 µM (≈ 16 µg/mL) | 168 °C | 351 ± 2 µM | 
13 | O=C(/C=C/c1ccc(F)cc1F)c1ccc(Cl)c(Cl)c1 [Compound 7, (E)-1-(3,4-dichlorophenyl)-3-(2,4-difluorophenyl)prop-2-en-1-one] | 25.5 µM | 9.96 µM (≈ 3.12 µg/mL) | > 50 µg/mL | 51.1 µM (≈ 16 µg/mL) | 265 °C | 31 ± 2 µM | 
14 | O=C(/C=C/c1ccc[nH]1)c1ccc(Cl)c(Cl)c1 [Compound 15, (E)-1-(3,4-dichlorophenyl)-3-(1H-pyrrol-2-yl)prop-2-en-1-one] | 60.4 µM | 47.2 µM (≈ 12.6 µg/mL) | > 50 µg/mL | 60.4 µM (≈ 16.1 µg/mL) | 238 °C | 94 ± 2 µM | 
15 | Fc1ccc(C2CC(c3ccc(Cl)c(Cl)c3)=NN2c2ccccc2)cc1 (centres unmarked) [Compound 18, 3-(3,4-dichlorophenyl)-1-phenyl-5-(4-fluorophenyl)-4,5-dihydro-1H-pyrazole] | 28.8 µM |  | > 75 µg/mL | 41.5 µM (≈ 16 µg/mL) | 195 °C | 119 ± 2 µM | MIC [1, 9]: 20.8 µg/mL; Antifungal activity MIC, A. niger [1]: 20.76 µM; MIC [2]: 32.44 µM (≈ 12.5 µg/mL); fold less activity than pyrazinamide [2]: 1.2 fold
16 | Clc1ccc(C2=NN(c3ccccc3)C(c3ccc[nH]3)C2)cc1Cl (centres unmarked) [Compound 30, 3-(3,4-dichlorophenyl)-1-phenyl-5-(1H-pyrrol-2-yl)-4,5-dihydro-1H-pyrazole] | 44.9 µM | 70.2 µM (≈ 25 µg/mL) | > 75 µg/mL | 44.9 µM (≈ 16 µg/mL) | 171 °C | 84 ± 2 µM | fold reduction in antitubercular activity compared with chalcone 15 ([2]; comparator compound 15): 1.5 fold
17 | O=C(/C=C/c1ccc2c(c1)OCO2)c1ccc(Cl)c(Cl)c1 [Compound 10] | 23 µM | 72.2 µM (≈ 23.2 µg/mL) | > 50 µg/mL | 180 µM (≈ 57.8 µg/mL) |  | 138 ± 2 µM | Antifungal activity MIC, A. niger [1]: 23.11 µM; Antifungal activity MIC, C. tropicalis ([4]; serial tube dilution, 37 °C, 18 h, average of three): 180.62 µM
18 | O=C(/C=C/c1ccc(C(F)(F)F)cc1)c1ccc(Cl)c(Cl)c1 [Compound 9, (E)-1-(3,4-dichlorophenyl)-3-(4-trifluoromethylphenyl)prop-2-en-1-one] | 11.6 µM | 9.03 µM (≈ 3.12 µg/mL) | > 50 µg/mL | 11.6 µM (≈ 4 µg/mL) | 169 °C | 292 ± 1 µM | fold improvement in antitubercular activity vs. compound 2 ([2]; comparator compound 2 (MIC 343.44 µM)): approximately 40 fold; fold better activity than the standard pyrazinamide [2]: 2.8 fold
19 | O=C(/C=C/c1cccnc1)c1ccc(Cl)c(Cl)c1 [Compound 12, (E)-1-(3,4-dichlorophenyl)-3-(pyridin-3-yl)prop-2-en-1-one] | 28.9 µM | 22.6 µM (≈ 6.27 µg/mL) | > 50 µg/mL | 14.4 µM (≈ 4.01 µg/mL) | 191 °C | 256 ± 2 µM | 
20 | OC(Cn1cncn1)(Cn1cncn1)c1ccc(F)cc1F [Fluconazole, reference compound] | 26.1 µM |  |  | 19.6 µM (≈ 6 µg/mL) |  |  | 
21 | NC(=O)c1cnccn1 [Pyrazinamide, reference compound] |  | 25.3 µM (≈ 3.12 µg/mL) |  |  |  |  | 
22 | O=C(/C=C/c1ccc(F)cc1)c1ccc(Cl)c(Cl)c1 [Compound 3] | 54.2 µM | 84.7 µM (≈ 25 µg/mL) | > 50 µg/mL | 54.2 µM (≈ 16 µg/mL) |  | 176 ± 2 µM | 
23 | O=C(/C=C/c1ccncc1)c1ccc(Cl)c(Cl)c1 [Compound 13] | 57.8 µM | 45.1 µM (≈ 12.5 µg/mL) | > 50 µg/mL | 113 µM (≈ 31.4 µg/mL) |  | 209 ± 2 µM | 
24 | O=C(/C=C/c1ccc(Cl)cc1)c1ccc(Cl)c(Cl)c1 [Compound 5] | 25.7 µM | 80.2 µM (≈ 25 µg/mL) | > 50 µg/mL | 51.3 µM (≈ 16 µg/mL) |  | 147 ± 2 µM | 
